29 compounds from patent US8420676B2, “Oxazolidinone derivatives” (Dong-A Pharmaceuticals Co. Ltd., priority 2003, dated 2013) can be followed below.

Values after ≈ are worked out from the molar mass of the structure shown.

In assay [1] the test system is methicillin resistant Staphylococcus aureus (MRSA). The experiment in a line: Assay for in vitro antibacterial activity, agar dilution (MRSA). Conditions: read-out: Minimum Inhibitory Concentration (MIC50) MRSA. A general note: Agar dilution tests growth on a series of plates holding different concentrations.
In assay [2] the test system is vancomycin resistant Enterococci (VRE). As to the kind of experiment: Assay for in vitro antibacterial activity, agar dilution (VRE). Conditions: Enterococcus, read-out: Minimum Inhibitory Concentration (MIC50) VRE.

`Cc1nc(-c2ccc(-c3ccc(N4C[C@H](CO)OC4=O)cc3F)cc2)oc1C` [Compound 21, (R)-3-(4-(4-(4,5-dimethyloxazol-2-yl)phenyl)-3-fluorophenyl)-5-hydroxymethyl oxazolidin-2-one]: the MIC50 in assay [1] and in assay [2] was 1 µg/mL (≈ 2.62 µM) each time.

As to `Cn1nnnc1-c1ccc(-c2ccc(N3C[C@H](CO)OC3=O)cc2F)cn1` [Compound 61, (R)-3-(4-(2-(1-methyltetrazol-5-yl)pyridin-5-yl)-3-fluorophenyl)-5-hydroxymethyl oxazolidin-2-one], the values for the MIC50 in assay [1] and in assay [2] were 0.5 µg/mL (≈ 1.35 µM) and 0.25 µg/mL (≈ 0.675 µM), respectively.

Take `CC(=O)NC[C@H]1CN(c2ccc(-c3ccc(-n4cc(COC(=O)CN)nn4)nc3)c(F)c2)C(=O)O1` [Compound 2, (S)-3-(4-(2-(4-glycyloxymethyl-1,2,3-triazol-1-yl)pyridin-5-yl)-3-fluorophenyl)-2-oxo-5-oxazolidinylmethyl acetamide trifluoroacetic acid]: the MIC50 in assay [1] is 0.5 µg/mL (≈ 1.03 µM); in assay [2], 0.125 µg/mL (≈ 0.259 µM).

On to `CC(=O)NC[C@H]1CN(c2ccc(-c3ccc(N4CCC(OC(=O)CN)C4=O)nc3)c(F)c2)C(=O)O1` (stereo partly drawn) [Compound 5, (S)-3-(4-(2-(2-oxo-3-glycyloxypyrrolidine-1-yl)pyridin-5-yl)-3-fluorophenyl)-2-oxo-5-oxazolidinylmethyl acetamide trifluoroacetic acid], for which the MIC50 in assay [1] came out at 0.5 µg/mL (≈ 1.03 µM); in assay [2] it was 0.25 µg/mL (≈ 0.515 µM).

In the case of `Cc1nnc(-c2ccc(-c3ccc(N4C[C@H](Cn5ccnn5)OC4=O)cc3F)cn2)o1` [Compound 13, (R)-3-(4-(2-(2-methyl-[1,3,4]oxadiazol-5-yl)pyridin-5-yl)-3-fluorophenyl)-5-([1,2,3]triazol-1-yl)methyl oxazolidin-2-one], the MIC50 in assay [1] and in assay [2] was 0.25 µg/mL (≈ 0.593 µM) each time.

As to `Cn1nnc(-c2ccc(-c3ccc(N4C[C@H](Cn5cncn5)OC4=O)cc3F)cn2)n1` [Compound 4, (R)-3-(4-(2-(2-methyltetrazol-5-yl)pyridin-5-yl)-3-fluorophenyl)-5-([1,2,4]triazol-1-yl)methyl oxazolidin-2-one], the MIC50 in assay [1] and in assay [2] was 2 µg/mL (≈ 4.75 µM) throughout.

As to `Cl.Cn1nnnc1-c1ccc(-c2ccc(N3C[C@H](COC(=O)CCN)OC3=O)cc2F)cn1` [Compound 69, (R)-3-(4-(2-(1-methyltetrazol-5-yl)pyridin-5-yl)-3-fluorophenyl)-5-(β-alanyloxy)methyl oxazolidin-2-one hydrochloride], the MIC50 was 0.5 µg/mL in assay [1] and 0.25 µg/mL in assay [2].

As for `Cl.NC[C@H]1CN(c2ccc(-c3ccc(-n4ccnc4)nc3)c(F)c2)C(=O)O1` [Compound 19, (S)-3-(4-(2-(imidazole-1-yl)pyridin-5-yl)-3-fluorophenyl)-5-aminomethyl oxazolidin-2-one hydrochloride], the MIC50 in assay [1] and in assay [2] was 32 µg/mL throughout.

With `CNC[C@H]1CN(c2ccc(-c3ccc(-c4nnn(C)n4)nc3)c(F)c2)C(=O)O1` [Compound 41], the results for the MIC50 in assay [1] and in assay [2] were 4 µg/mL (≈ 10.4 µM) and 8 µg/mL (≈ 20.9 µM), respectively.

`Cn1nnnc1-c1ccc(-c2ccc(N3C[C@H](Cn4ccnn4)OC3=O)cc2F)cn1` [Compound 71, (R)-3-(4-(2-(1-methyltetrazol-5-yl)pyridin-5-yl)-3-fluorophenyl)-5-([1,2,3]triazol-1-yl)methyl oxazolidin-2-one]: the results for the MIC50 in assay [1] and in assay [2] were 0.5 µg/mL (≈ 1.19 µM) and 0.125 µg/mL (≈ 0.297 µM), respectively.

For `CN(C)CC1CN(c2ccc(-c3ccc(-c4nnn(C)n4)nc3)c(F)c2)C(=O)O1` (stereo in doubt) [Compound 40, (R)-3-(4-(2-(2-methyltetrazol-5-yl)pyridin-5-yl)-3-fluorophenyl)-5-(N,N-dimethylaminomethyl)oxazolidin-2-one], the MIC50 came out at 4 µg/mL (≈ 10.1 µM) in assay [1] and 8 µg/mL (≈ 20.1 µM) in assay [2].

Take `Cn1nnnc1-c1ccc(-c2ccc(N3C[C@H](COP(=O)(O)O)OC3=O)cc2F)cn1` [Compound 73, mono-[(R)-[3-(4-(2-(1-methyltetrazol-5-yl)pyridin-5-yl)-3-fluorophenyl)-2-oxo-5-oxazolidinyl]methyl]phosphate]: the MIC50 in assay [1] and in assay [2] was 32 µg/mL (≈ 71.1 µM) throughout.

With `CC(=O)NC[C@H]1CN(c2ccc(-c3ccc(C4=NC(CO)CO4)cc3)c(F)c2)C(=O)O1` (stereo partly drawn) [Compound 26, (S)-3-(4-(4-(4(S)-hydroxymethyl-4,5-dihydroxazole-2-yl)phenyl)-3-fluorophenyl)-2-oxo-5-oxazolidinylmethyl acetamide], the MIC50 in assay [1] and in assay [2] was 0.5 µg/mL (≈ 1.17 µM) each time.

`CC(=O)NC[C@H]1CN(c2ccc(-c3ccc(-c4nc(COC(=O)CN)cs4)cc3)c(F)c2)C(=O)O1` [Compound 30, (S)-3-(4-(4-(4-glycyloxymethylthiazol-2-yl)phenyl)-3-fluorophenyl)-2-oxo-5-oxazolidinylmethyl acetamide trifluoroacetic acid]: the MIC50 in assay [1] and in assay [2] was 0.5 µg/mL (≈ 1 µM) each time.

For the compound `CC(=O)NC[C@H]1CN(c2ccc(-c3ccc(-c4nc(C)c(C)o4)nc3)c(F)c2)C(=O)O1` [Compound 15], the MIC50 in assay [1] and in assay [2] was 1 µg/mL (≈ 2.36 µM) throughout.

On to `O=C1O[C@@H](Cn2ccnn2)CN1c1ccc(-c2ccc(-n3cncn3)nc2)c(F)c1` [Compound 14, (R)-3-(4-(2-([1,2,4]triazol-1-yl)pyridin-5-yl)-3-fluorophenyl)-5-([1,2,3]triazol-1-yl)methyl oxazolidin-2-one], for which the MIC50 in assay [1] and in assay [2] was 0.25 µg/mL (≈ 0.615 µM) each time.

In the case of `Cc1nnc(-c2ccc(-c3c(F)cc(N4C[C@H](CO)OC4=O)cc3F)cn2)o1` [Compound 39, (R)-3-(4-(2-(2-methyl-[1,3,4]oxadiazol-5-yl)pyridin-5-yl)-3,5-difluorophenyl)-5-hydroxymethyl oxazolidin-2-one], the MIC50 in assay [1] and in assay [2] was 1 µg/mL (≈ 2.58 µM) in each case.

As to `N#CCc1csc(-c2ccc(-c3ccc(N4C[C@H](CO)OC4=O)cc3F)cc2)n1` [Compound 32, (R)-3-(4-(4-(4-cyanomethylthiazol-2-yl)phenyl)-3-fluorophenyl)-5-hydroxymethyl oxazolidin-2-one], the figures for the MIC50 in assay [1] and in assay [2] were 0.5 µg/mL (≈ 1.22 µM) and 1 µg/mL (≈ 2.44 µM), respectively.

In the case of `Cn1nnc(-c2ccc(-c3ccc(N4C[C@H](Cn5nccn5)OC4=O)cc3F)cn2)n1` [Compound 8, (R)-3-(4-(2-(2-methyltetrazol-5-yl)pyridin-5-yl)-3-fluorophenyl)-5-([1,2,3]triazol-2-yl)methyl oxazolidin-2-one], the MIC50 in assay [1] and in assay [2] was 16 µg/mL (≈ 38 µM) each time.

Turning to `CC(=O)NC[C@H]1CN(c2ccc(-c3ccc(-c4nc(CC#N)cs4)cc3)c(F)c2)C(=O)O1` [Compound 31, (S)-3-(4-(4-(4-cyanomethylthiazol-2-yl)phenyl)-3-fluorophenyl)-2-oxo-5-oxazolidinylmethyl acetamide], the MIC50 in assay [1] and in assay [2] was 0.5 µg/mL (≈ 1.11 µM) throughout.

For `CC(C)[C@H](N)C(=O)OC[C@H]1CN(c2ccc(-c3ccc(-c4nnnn4C)nc3)c(F)c2)C(=O)O1.Cl` [Compound 67, (R)-3-(4-(2-(1-methyltetrazol-5-yl)pyridin-5-yl)-3-fluorophenyl)-5-(L-valyloxy)methyl oxazolidin-2-one hydrochloride], the MIC50 in assay [1] is 0.5 µg/mL; in assay [2], 0.25 µg/mL.

Consider `O=C1O[C@@H](CO)CN1c1ccc(-c2ccc(-n3nccn3)nc2)c(F)c1` [Compound 29, (R)-3-(4-(2-([1,2,3]triazol-2-yl)pyridin-5-yl)-3-fluorophenyl)-5-hydroxymethyl oxazolidin-2-one], for which the MIC50 worked out at 0.5 µg/mL (≈ 1.41 µM) in assay [1] and 1 µg/mL (≈ 2.81 µM) in assay [2].

In the case of `Cc1nc(-c2ccc(-c3ccc(N4C[C@H](COC(=O)CN)OC4=O)cc3F)cc2)oc1C` [Compound 23, (R)-3-(4-(4-(4,5-dimethyloxazol-2-yl)phenyl)-3-fluorophenyl)-5-glycyloxymethyl oxazolidin-2-one trifluoroacetic acid], the MIC50 in assay [1] and in assay [2] was 2 µg/mL (≈ 4.55 µM) in each case.

With `Cn1nnc(-c2ccc(-c3c(F)cc(N4C[C@H](CO)OC4=O)cc3F)cn2)n1` [Compound 38, (R)-3-(4-(2-(2-methyltetrazol-5-yl)pyridin-5-yl)-3,5-difluorophenyl)-5-hydroxymethyl oxazolidin-2-one], the MIC50 was determined as 0.5 µg/mL (≈ 1.29 µM) in assay [1] and 1 µg/mL (≈ 2.58 µM) in assay [2].

As for `NCC(=O)OC[C@H]1CN(c2ccc(-c3ccc(-n4nccn4)nc3)c(F)c2)C(=O)O1` [Compound 35, (R)-3-(4-(2-([1,2,3]triazol-2-yl)pyridin-5-yl)-3-fluorophenyl)-5-glycyloxymethyl oxazolidin-2-one trifluoroacetic acid], the MIC50 in assay [1] and in assay [2] was 1 µg/mL (≈ 2.42 µM) each time.

For `CC(=O)NC[C@H]1CN(c2ccc(-c3ccc(C4=NOC(COC(=O)CN)C4)nc3)c(F)c2)C(=O)O1` (stereo partly drawn) [Compound 7, (S)-3-(4-(2-(5-glycyloxymethyl-4,5-dihydroisoxazole-3-yl)pyridin-5-yl)-3-fluorophenyl)-2-oxo-5-oxazolidinylmethyl acetamide trifluoroacetic acid], the MIC50 in assay [1] and in assay [2] was 0.5 µg/mL (≈ 1.03 µM) each time.

For the compound `C[C@H](N)C(=O)OC[C@H]1CN(c2ccc(-c3ccc(-c4nnnn4C)nc3)c(F)c2)C(=O)O1.Cl` [Compound 65, (R)-3-(4-(2-(1-methyltetrazol-5-yl)pyridin-5-yl)-3-fluorophenyl)-5-(L-alanyloxy)methyl oxazolidin-2-one hydrochloride], the MIC50 was determined as 0.5 µg/mL in assay [1] and 0.25 µg/mL in assay [2].

With `Cn1nnc(-c2ccc(-c3ccc(N4C[C@H](Cn5ccnn5)OC4=O)cc3F)cn2)n1` [Compound 9, (R)-3-(4-(2-(2-methyltetrazol-5-yl)pyridin-5-yl)-3-fluorophenyl)-5-([1,2,3]triazol-1-yl)methyl oxazolidin-2-one], the MIC50 in assay [1] was determined as 0.25 µg/mL (≈ 0.593 µM); in assay [2] it was 0.125 µg/mL (≈ 0.297 µM).

Regarding `CC(=O)NC[C@H]1CN(c2ccc(N3CCOCC3)c(F)c2)C(=O)O1` [Zyvox, reference compound], the MIC50 in assay [1] and in assay [2] was 2 µg/mL (≈ 5.93 µM) in each case.
